In paper PMC9555309, “Improvement of native structure-based peptides as efficient inhibitors of protein-protein interactions of SARS-CoV-2 spike protein and human ACE2” (Frontiers in Molecular Biosciences, 2022):
No end group written: not given here.

Tests used:
[1] = biological target: RBD domain of the SARS-CoV-2 S protein (Severe acute respiratory syndrome coronavirus 2, UniProt P0DTC2); assay: biochemical; format: binding; conditions: KD Tmeasur. 25°C
[2] = tested on: BEAS 2B cells; assay: MTS cell viability assay, BEAS 2B; format: cell-based, human; conditions: 72 h exposure, concentrations up to 1 mM
Protocol: (§1) BEAS 2B (cat. no.: ATCC® CRL-9609™) and Calu-3 (cat. no.: ATCC HTB-55™) cell lines were purchased from the American Type Culture Collection (ATCC, United States). BEAS 2B cells were maintained in Bronchial Epithelial Cell Growth Medium (BEGM) containing Bronchial Epithelial Basal Medium (BEBM cat. no.: CC-3171) supplemented with growth factors (SingleQuotsTM Supplement Pack cat. no.: CC-4175), both from Lonza (Switzerland). […]
(§2) After 72 h of incubation at 37°C, the combined solution of MTS (Promega, United States, cat. no.: G1112) and an electron coupling reagent, phenazine methosulfate (PMS, Sigma-Aldrich, Merck, Germany, cat. no.: P9625) was added to the cell culture media, to a final concentration of 333 μg/ml MTS and 25 μM PMS. Cells were then incubated for 3 h at 37°C in a humidified, 5% CO2 atmosphere, and the absorbance at 490 nm wavelength was measured using a spectrophotometer (Synergy HT Microplate Reader, BioTek, United States). The absorbance values recorded for cells exposed to peptide were compared to values measured for untreated control cells, regarded as 100% cell viability.
(§3) The amount of formazan product measured spectrophotometrically is directly proportional to the number of viable cells ([Berridge et al., 2005]).

[3] = tested on: Calu-3 cells; assay: MTS cell viability assay, Calu-3; format: cell-based, human; conditions: Calu-3, 72 h exposure, concentrations up to 1 mM
Protocol: as §1, §2, §3

[4] = tested on: SARS-CoV-2 S protein - hACE2 interaction; conditions: ref Odolczyk et al., 2021; read-out: IC50 inhibition of virus-host protein-protein interaction; cited from earlier work

Molecule	Kd [1] [µM]	Cell viability (MTS) [2]	Cell viability (MTS) [3]	IC50 [4] [µM]
NC(=O)C[C@H](NC(=O)CNC(=O)[C@H](Cc1ccc(O)cc1)NC(=O)[C@@H](N)CC(=O)O)C(=O)N[C@@H](Cc1c[nH]cn1)C(=O)N[C@@H](CCC(=O)O)C(=O)O [J3, DYGNHE]	0.05 ± 0.01	not affected	not affected	–
NCCCC[C@H](NC(=O)[C@@H](N)CC(=O)O)C(=O)NCC(=O)N[C@@H](CC(N)=O)C(=O)N[C@@H](Cc1c[nH]cn1)C(=O)N[C@@H](CCC(=O)O)C(=O)O [pep1d, DKGNHE]	–	–	–	3300
LYGNYE [J3.5, LYGNYE]	> 1	–	–	–
MYGNYE [J3.4, MYGNYE]	> 10	–	–	–
